From article PMC6810216, “Human-to-Human Transmission of Influenza A(H3N2) Virus with Reduced Susceptibility to Baloxavir, Japan, February 2019” (Emerging Infectious Diseases, 2019) come the findings set out here.

Experiment [1] has as its system mutant influenza A(H3N2) viruses encoding the polymerase acidic I38T substitution. As to conditions: human, in vivo.
In experiment [2] the test system is A/Kanagawa/IC18141/2019, influenza A(H3N2) virus carrying polymerase acidic I38T substitution. The experiment is classed as cell-based.
In experiment [3] the target is neuraminidase (NA) of A/Kanagawa/IC18141/2019 (Influenza A virus (H3N2), UniProt A0A193ACB1). The experiment is classed as biochemical.

The IC50 is the point on the concentration scale where inhibition reaches its midpoint.

As for `O=C1c2c(O)c(=O)ccn2N([C@@H]2c3ccccc3SCc3c2ccc(F)c3F)[C@@H]2COCCN12` [Baloxavir, baloxavir acid], the “time to fever resolution after administration” value in experiment [1] was “within a half day”. Also, in experiment [2], inhibition was half-maximal at 236 nM (IC50) and the “fold higher IC50 value compared with the median IC50 of A(H3N2) viruses of the 2018–19 season” value was 186 fold.

Consider `CCC(CC)[C@H](NC(C)=O)[C@@H]1[C@H](O)[C@@H](C(=O)O)C[C@H]1N=C(N)N` [Peramivir, peramivir], for which, in experiment [3], half-maximal inhibition (IC50) was put at 0.18 nM and the “NA inhibitor susceptibility by WHO criteria (fold change in IC50 vs median of same-season isolates)” value was 0.18 (NI) (key: NI: normal (<10-fold increase); reduced (10–100-fold increase); highly reduced (>100-fold increase)).
